In PubChem BioAssay (NCI):
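96-well plates; 48 h exposure; 5 concentrations. Endpoints by linear interpolation between flanking doses. Not reached: highest tested concentration assigned. At the TGI there is no net growth.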

Tests used:
Experiment in all cases: growth of human tumour cells (NCI), 48 h
HT29 colon = system: HT29 colon
SF-268 CNS = system: SF-268 CNS
T-47D breast = system: T-47D breast
NCI-H23 lung = system: NCI-H23 lung
HCC-2998 colon = system: HCC-2998 colon
OVCAR-5 ovarian = system: OVCAR-5 ovarian
SR leukemia = system: SR leukemia
KM12 colon = system: KM12 colon
M14 melanoma = system: M14 melanoma
DU-145 prostate = system: DU-145 prostate
NCI/ADR-RES ovarian = system: NCI/ADR-RES ovarian
SN12C renal = system: SN12C renal
EKVX NSCLC = system: EKVX NSCLC
OVCAR-3 ovarian = system: OVCAR-3 ovarian
UO-31 renal = system: UO-31 renal
MALME-3M melanoma = system: MALME-3M melanoma
OVCAR-4 ovarian = system: OVCAR-4 ovarian
OVCAR-8 ovarian = system: OVCAR-8 ovarian
HS 578T breast = system: HS 578T breast
COLO 205 colon = system: COLO 205 colon
TK-10 renal = system: TK-10 renal
786-0 renal = system: 786-0 renal
MDA-N = system: MDA-N
PC-3 prostate = system: PC-3 prostate
NCI-H460 lung = system: NCI-H460 lung
ACHN renal = system: ACHN renal
SW-620 colon = system: SW-620 colon
NCI-H226 lung = system: NCI-H226 lung
HOP-62 NSCLC = system: HOP-62 NSCLC
U251 CNS = system: U251 CNS
HCT-15 colon = system: HCT-15 colon
MDA-MB-231 breast = system: MDA-MB-231 breast
UACC-62 melanoma = system: UACC-62 melanoma
SF-539 CNS = system: SF-539 CNS
MCF7 breast = system: MCF7 breast
SF-295 CNS = system: SF-295 CNS
HOP-92 NSCLC = system: HOP-92 NSCLC
A549 NSCLC = system: A549 NSCLC
SK-MEL-5 melanoma = system: SK-MEL-5 melanoma
MOLT-4 leukemia = system: MOLT-4 leukemia
IGROV1 ovarian = system: IGROV1 ovarian
RPMI-8226 leukemia = system: RPMI-8226 leukemia
MDA-MB-435 = system: MDA-MB-435
CAKI-1 renal = system: CAKI-1 renal
HCT-116 colon = system: HCT-116 colon
K-562 leukemia = system: K-562 leukemia
SNB-75 CNS = system: SNB-75 CNS
CCRF-CEM leukemia = system: CCRF-CEM leukemia
HL-60(TB) leukemia = system: HL-60(TB) leukemia
SK-OV-3 ovarian = system: SK-OV-3 ovarian
SK-MEL-28 melanoma = system: SK-MEL-28 melanoma
LOX IMVI melanoma = system: LOX IMVI melanoma
RXF 393 renal = system: RXF 393 renal
SK-MEL-2 melanoma = system: SK-MEL-2 melanoma
A498 renal = system: A498 renal
UACC-257 melanoma = system: UACC-257 melanoma
SNB-19 CNS = system: SNB-19 CNS
NCI-H522 lung = system: NCI-H522 lung

Cc1cc(C)c(OC(=O)Nc2cccc3ccccc23)c(-c2ccccc2)c1
TGI (HT29 colon): > 100 µM | TGI (SF-268 CNS): 80.1 µM | TGI (T-47D breast): > 100 µM | TGI (NCI-H23 lung): > 100 µM | TGI (HCC-2998 colon): 91.8 µM | TGI (OVCAR-5 ovarian): > 100 µM | TGI (SR leukemia): > 100 µM | TGI (KM12 colon): > 100 µM | TGI (M14 melanoma): > 100 µM | TGI (DU-145 prostate): > 100 µM | TGI (NCI/ADR-RES ovarian): > 100 µM | TGI (SN12C renal): > 100 µM | TGI (EKVX NSCLC): > 100 µM | TGI (OVCAR-3 ovarian): > 100 µM | TGI (UO-31 renal): 26.8 µM | TGI (MALME-3M melanoma): > 100 µM | TGI (OVCAR-4 ovarian): > 100 µM | TGI (OVCAR-8 ovarian): > 100 µM | TGI (HS 578T breast): > 100 µM | TGI (COLO 205 colon): > 100 µM | TGI (TK-10 renal): > 100 µM | TGI (786-0 renal): > 100 µM | TGI (MDA-N): > 100 µM | TGI (PC-3 prostate): > 100 µM | TGI (NCI-H460 lung): > 100 µM | TGI (ACHN renal): 94.9 µM | TGI (SW-620 colon): > 100 µM | TGI (NCI-H226 lung): 58.4 µM | TGI (HOP-62 NSCLC): > 100 µM | TGI (U251 CNS): > 100 µM | TGI (HCT-15 colon): > 100 µM | TGI (MDA-MB-231 breast): > 100 µM | TGI (UACC-62 melanoma): > 100 µM | TGI (SF-539 CNS): > 100 µM | TGI (MCF7 breast): > 100 µM | TGI (SF-295 CNS): > 100 µM | TGI (HOP-92 NSCLC): 78.6 µM | TGI (A549 NSCLC): > 100 µM | TGI (SK-MEL-5 melanoma): 34.6 µM | TGI (MOLT-4 leukemia): 37.3 µM | TGI (IGROV1 ovarian): > 100 µM | TGI (RPMI-8226 leukemia): > 100 µM | TGI (MDA-MB-435): 82.2 µM | TGI (CAKI-1 renal): 93 µM | TGI (HCT-116 colon): > 100 µM | TGI (K-562 leukemia): > 100 µM | TGI (SNB-75 CNS): 47.4 µM | TGI (CCRF-CEM leukemia): > 100 µM | TGI (HL-60(TB) leukemia): > 100 µM | TGI (SK-OV-3 ovarian): > 100 µM | TGI (SK-MEL-28 melanoma): > 100 µM | TGI (LOX IMVI melanoma): > 100 µM

Nc1nc2c(ncn2CC2CCC(CO)C2)c(=O)[nH]1 (stereo unspecified)
TGI (SF-268 CNS): > 100 µM | TGI (T-47D breast): > 100 µM | TGI (HCC-2998 colon): > 100 µM | TGI (OVCAR-5 ovarian): > 100 µM | TGI (KM12 colon): > 100 µM | TGI (M14 melanoma): > 100 µM | TGI (DU-145 prostate): > 100 µM | TGI (NCI/ADR-RES ovarian): > 100 µM | TGI (SN12C renal): > 100 µM | TGI (EKVX NSCLC): > 100 µM | TGI (OVCAR-3 ovarian): > 100 µM | TGI (UO-31 renal): > 100 µM | TGI (OVCAR-4 ovarian): > 100 µM | TGI (RXF 393 renal): > 100 µM | TGI (SK-MEL-2 melanoma): > 100 µM | TGI (HS 578T breast): > 100 µM | TGI (COLO 205 colon): > 100 µM | TGI (TK-10 renal): > 100 µM | TGI (786-0 renal): > 100 µM | TGI (MDA-N): > 100 µM | TGI (PC-3 prostate): > 100 µM | TGI (ACHN renal): > 100 µM | TGI (SW-620 colon): > 100 µM | TGI (NCI-H226 lung): > 100 µM | TGI (HOP-62 NSCLC): > 100 µM | TGI (U251 CNS): > 100 µM | TGI (HCT-15 colon): > 100 µM | TGI (A498 renal): > 100 µM | TGI (MDA-MB-231 breast): > 100 µM | TGI (UACC-62 melanoma): > 100 µM | TGI (SF-539 CNS): > 100 µM | TGI (MCF7 breast): > 100 µM | TGI (SF-295 CNS): > 100 µM | TGI (HOP-92 NSCLC): > 100 µM | TGI (A549 NSCLC): > 100 µM | TGI (UACC-257 melanoma): > 100 µM | TGI (SK-MEL-5 melanoma): > 100 µM | TGI (RPMI-8226 leukemia): > 100 µM | TGI (MDA-MB-435): > 100 µM | TGI (CAKI-1 renal): > 100 µM | TGI (SNB-19 CNS): > 100 µM | TGI (HCT-116 colon): > 100 µM | TGI (K-562 leukemia): > 100 µM | TGI (SNB-75 CNS): > 100 µM | TGI (CCRF-CEM leukemia): > 100 µM | TGI (SK-OV-3 ovarian): > 100 µM | TGI (SK-MEL-28 melanoma): > 100 µM | TGI (LOX IMVI melanoma): > 100 µM

CC1=NN(c2nc(N)nc(/C(C#N)=C\C3COc4ccccc4C3=O)n2)C(C)(C)C1 (stereo unspecified)
TGI (HT29 colon): 69 µM | TGI (SF-268 CNS): > 100 µM | TGI (T-47D breast): 69.1 µM | TGI (NCI-H23 lung): 90.5 µM | TGI (HCC-2998 colon): > 100 µM | TGI (OVCAR-5 ovarian): > 100 µM | TGI (SR leukemia): 46.1 µM | TGI (KM12 colon): > 100 µM | TGI (M14 melanoma): > 100 µM | TGI (DU-145 prostate): > 100 µM | TGI (NCI/ADR-RES ovarian): 35.9 µM | TGI (EKVX NSCLC): > 100 µM | TGI (OVCAR-3 ovarian): > 100 µM | TGI (UO-31 renal): 96.8 µM | TGI (OVCAR-4 ovarian): > 100 µM | TGI (RXF 393 renal): 64.4 µM | TGI (OVCAR-8 ovarian): > 100 µM | TGI (SK-MEL-2 melanoma): 42.3 µM | TGI (HS 578T breast): 85 µM | TGI (TK-10 renal): > 100 µM | TGI (786-0 renal): > 100 µM | TGI (MDA-N): 84.6 µM | TGI (PC-3 prostate): 77.7 µM | TGI (NCI-H460 lung): > 100 µM | TGI (NCI-H522 lung): > 100 µM | TGI (ACHN renal): 93.7 µM | TGI (SW-620 colon): > 100 µM | TGI (NCI-H226 lung): > 100 µM | TGI (HOP-62 NSCLC): > 100 µM | TGI (U251 CNS): > 100 µM | TGI (HCT-15 colon): > 100 µM | TGI (A498 renal): 63 µM | TGI (MDA-MB-231 breast): > 100 µM | TGI (SF-539 CNS): > 100 µM | TGI (MCF7 breast): > 100 µM | TGI (SF-295 CNS): > 100 µM | TGI (HOP-92 NSCLC): > 100 µM | TGI (UACC-257 melanoma): > 100 µM | TGI (SK-MEL-5 melanoma): > 100 µM | TGI (MOLT-4 leukemia): 64 µM | TGI (IGROV1 ovarian): > 100 µM | TGI (RPMI-8226 leukemia): 54.8 µM | TGI (MDA-MB-435): > 100 µM | TGI (CAKI-1 renal): > 100 µM | TGI (HCT-116 colon): 75 µM | TGI (K-562 leukemia): > 100 µM | TGI (CCRF-CEM leukemia): > 100 µM | TGI (HL-60(TB) leukemia): 5.2 µM | TGI (SK-OV-3 ovarian): 84.7 µM | TGI (SK-MEL-28 melanoma): > 100 µM | TGI (LOX IMVI melanoma): > 100 µM
